In ChEMBL document CHEMBL3044879, “Design, synthesis, and preliminary in vitro and in vivo pharmacological evaluation of 4-{4-[2-(4-(2-substitutedquinoxalin-3-yl)piperazin-1-yl)ethyl]phenyl}thiazoles as atypical antipsychotic agents” (Med Chem Res, 2013):
Active and inactive are the calls of the source. No cut-off for these calls is given here.

Key:
Mus musculus [1] = test: Antagonist activity at central serotonergic 5-HT2A receptor in Swiss albino Mus musculus (mouse) assessed as inhibition of quipazine meleate-induced head twiches at 0.6 mg/kg, ip administered 1 hr prior to quipazine meleate challenge measured after 30 to 40 min relative to vehicle-treated control; assay type: functional; details: route intraperitoneal
Mus musculus [2] = test: Antagonist activity at mesolimbic dopaminergic D2 receptor in Swiss albino Mus musculus (mouse) assessed as inhibition of apomorphine-induced cage climbing behavior at 0.6 mg/kg, ip administered 1 hr prior to apomorphine challenge measured after 10 min relative to vehicle-treated control; assay type: functional; details: route intraperitoneal
Mus musculus [3] = test: In vivo inhibition of dopaminergic D2 receptor in Swiss albino Mus musculus (mouse) at 10 mg/kg, ip relative to vehicle-treated control; assay type: functional; details: route intraperitoneal
Mus musculus [4] = test: Antagonist activity at mesolimbic dopaminergic D2 receptor in Swiss albino Mus musculus (mouse) assessed as inhibition of apomorphine-induced cage climbing behavior at 0.6 mg/kg, ip administered 1 hr prior to apomorphine challenge measured after 20 min relative to vehicle-treated control; assay type: functional; details: route intraperitoneal
Mus musculus [5] = test: Antagonist activity at mesolimbic dopaminergic D2 receptor in Swiss albino Mus musculus (mouse) assessed as inhibition of apomorphine-induced cage climbing behavior at 0.6 mg/kg, ip administered 1 hr prior to apomorphine challenge measured after 30 min relative to vehicle-treated control; assay type: functional; details: route intraperitoneal
Mus musculus [6] = test: Antagonist activity at nigrostriatal dopaminergic D2 receptor in Swiss albino Mus musculus (mouse) assessed as maximum average cataleptic time at 0.6 mg/kg, ip after 1 to 5 hr relative to vehicle-treated control; assay type: organism-based; set-up: dose 0.6 mg/kg, route intraperitoneal; details: in vivo
Mus musculus [7] = test: Selectivity ratio of inhibition of 5-HT2A receptor in Swiss albino Mus musculus (mouse) to inhibition of dopaminergic D2 receptor in Swiss albino Mus musculus (mouse) at 10 mg/kg, ip; assay type: functional; details: route intraperitoneal
Mus musculus [8] = test: In vivo inhibition of 5-HT2A receptor in Swiss albino Mus musculus (mouse) at 10 mg/kg, ip relative to vehicle-treated control; assay type: functional; details: route intraperitoneal
Mus musculus [9] = test: Antagonist activity at nigrostriatal dopaminergic D2 receptor in Swiss albino Mus musculus (mouse) assessed as maximum average cataleptic time at 10 mg/kg, ip after 1 to 5 hr relative to vehicle-treated control; assay type: organism-based; set-up: dose 10 mg/kg, route intraperitoneal; details: in vivo
[10] = target: 5-hydroxytryptamine receptor 2A (Rattus norvegicus) (UniProt P14842); test: Displacement of [3H]ketanserin from 5-HT2A receptor in Rattus norvegicus (rat) cortex membrane homogenates up to 1 uM after 90 min by liquid scintillation counting analysis
Sequence of 5-hydroxytryptamine receptor 2A (Rattus norvegicus) (P14842 whole entry): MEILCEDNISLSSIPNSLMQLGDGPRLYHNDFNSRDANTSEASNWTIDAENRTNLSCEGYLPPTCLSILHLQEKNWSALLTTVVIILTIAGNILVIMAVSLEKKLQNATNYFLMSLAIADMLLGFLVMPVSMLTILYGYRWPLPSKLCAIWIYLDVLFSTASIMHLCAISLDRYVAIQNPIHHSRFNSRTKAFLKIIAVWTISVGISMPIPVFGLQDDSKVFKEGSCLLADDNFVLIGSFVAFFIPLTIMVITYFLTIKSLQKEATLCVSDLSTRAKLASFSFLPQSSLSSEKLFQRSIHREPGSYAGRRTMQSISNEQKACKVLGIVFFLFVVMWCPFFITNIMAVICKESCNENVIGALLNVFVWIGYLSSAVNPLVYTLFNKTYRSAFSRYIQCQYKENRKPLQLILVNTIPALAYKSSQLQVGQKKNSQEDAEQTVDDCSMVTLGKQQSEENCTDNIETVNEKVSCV

Mus musculus [11] = test: Antagonist activity at mesolimbic dopaminergic D2 receptor in Swiss albino Mus musculus (mouse) assessed as inhibition of apomorphine-induced cage climbing behavior at 10 mg/kg, ip administered 1 hr prior to apomorphine challenge measured after 20 min relative to vehicle-treated control; assay type: functional; details: route intraperitoneal
[12] = target: D(2) dopamine receptor (Rattus norvegicus) (UniProt P61169); test: Displacement of [3H]spiperone from D2 receptor in Rattus norvegicus (rat) straitum membrane homogenates at 10 uM after 60 min by liquid scintillation counting analysis
Sequence of D(2) dopamine receptor (Rattus norvegicus) (P61169 whole entry): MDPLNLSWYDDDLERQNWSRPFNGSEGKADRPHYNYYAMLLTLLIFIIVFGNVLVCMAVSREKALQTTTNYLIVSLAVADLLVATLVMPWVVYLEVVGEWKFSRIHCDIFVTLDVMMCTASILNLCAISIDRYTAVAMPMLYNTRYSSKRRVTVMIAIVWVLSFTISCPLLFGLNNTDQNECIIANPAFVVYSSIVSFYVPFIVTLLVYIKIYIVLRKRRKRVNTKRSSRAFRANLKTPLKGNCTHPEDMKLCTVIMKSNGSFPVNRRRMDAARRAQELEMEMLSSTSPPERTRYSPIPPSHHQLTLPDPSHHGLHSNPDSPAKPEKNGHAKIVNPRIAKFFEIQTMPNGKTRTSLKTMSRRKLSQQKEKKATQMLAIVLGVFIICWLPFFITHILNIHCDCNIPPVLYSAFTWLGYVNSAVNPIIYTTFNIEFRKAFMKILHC

[13] = target: D(2) dopamine receptor (Rattus norvegicus) (UniProt P61169); test: Displacement of [3H]spiperone from D2 receptor in Rattus norvegicus (rat) straitum membrane homogenates at 100 uM after 60 min by liquid scintillation counting analysis
Mus musculus [14] = test: Antagonist activity at mesolimbic dopaminergic D2 receptor in Swiss albino Mus musculus (mouse) assessed as inhibition of apomorphine-induced cage climbing behavior at 10 mg/kg, ip administered 1 hr prior to apomorphine challenge measured after 10 min relative to vehicle-treated control; assay type: functional; details: route intraperitoneal
Mus musculus [15] = test: Antagonist activity at central serotonergic 5-HT2A receptor in Swiss albino Mus musculus (mouse) assessed as inhibition of quipazine meleate-induced head twiches at 10 mg/kg, ip administered 1 hr prior to quipazine meleate challenge measured after 30 to 40 min relative to vehicle-treated control; assay type: functional; details: route intraperitoneal
[16] = target: 5-hydroxytryptamine receptor 2A (Rattus norvegicus) (UniProt P14842); test: Displacement of [3H]ketanserin from 5-HT2A receptor in Rattus norvegicus (rat) cortex membrane homogenates at 10 uM after 90 min by liquid scintillation counting analysis
[17] = target: D(2) dopamine receptor (Rattus norvegicus) (UniProt P61169); test: Displacement of [3H]spiperone from dopaminergic D2 receptor in Rattus norvegicus (rat) straitum membrane homogenates up to 1 uM after 60 min by liquid scintillation counting analysis
Mus musculus [18] = test: Antagonist activity at mesolimbic dopaminergic D2 receptor in Swiss albino Mus musculus (mouse) assessed as inhibition of apomorphine-induced cage climbing behavior at 10 mg/kg, ip administered 1 hr prior to apomorphine challenge measured after 30 min relative to vehicle-treated control; assay type: functional; details: route intraperitoneal

inhibition [10]	inhibition [12]	inhibition [13]	inhibition [16]	inhibition [17]	SMILES	inhibition in vivo at 0.6 mg/kg (Mus musculus [1])	inhibition in vivo at 0.6 mg/kg (Mus musculus [2])	Imax (Mus musculus [3])	inhibition in vivo at 0.6 mg/kg (Mus musculus [4])	inhibition in vivo at 0.6 mg/kg (Mus musculus [5])	Time (Mus musculus [6])	Selectivity ratio (Mus musculus [7])	inhibition in vivo at 10 mg/kg (Mus musculus [8])	Time (Mus musculus [9])	inhibition in vivo at 10 mg/kg (Mus musculus [11])	inhibition in vivo at 10 mg/kg (Mus musculus [14])	inhibition in vivo at 10 mg/kg (Mus musculus [15])	inhibition in vivo at 10 mg/kg (Mus musculus [18])
–	–	–	–	–	Cc1nc2n(c(=O)c1CCN1CCC(c3noc4cc(F)ccc34)CC1)CCCC2 [RISPERIDONE]	100%	91%	91%	91%	90%	2.54 s	1.0989	100%	–	–	–	–	–
inactive	inactive	30%	63%	inactive	Cc1nc(-c2ccc(CCN3CCN(c4cnc5ccccc5n4)CC3)cc2)cs1	–	–	85%	–	–	–	0.9059	77%	5.17 s	55%	75%	77%	85%
inactive	inactive	82%	68%	inactive	COc1nc2ccccc2nc1N1CCN(CCc2ccc(-c3csc(C)n3)cc2)CC1	–	–	85%	–	–	–	0.7294	62%	6.25 s	70%	85%	62%	65%
inactive	inactive	24%	49%	inactive	COc1nc2ccccc2nc1N1CCN(CCc2ccc(-c3csc(N)n3)cc2)CC1	–	–	65%	–	–	–	0.1846	12%	14.12 s	60%	60%	12%	65%
